Measurements from patent publication US12336981B2, “Compounds and compositions for the inhibition of NAMPT” (Valo Health, Inc., priority 2010, dated 2025).
pIC50: −log10 of the molar value. Like-named read-outs stand apart in the source and are kept apart here.

Key:
NAMPT = target: T1, NAMPT (Homo sapiens, UniProt P43490); experiment: Biochemical inhibition assay: NAMPT enzymatic reaction, NMN quantified by mass spectrometry; details: read-out: Biochem IC50
T1 construct: His tag; host or cells: E. coli
T1 sequence (P43490 whole entry): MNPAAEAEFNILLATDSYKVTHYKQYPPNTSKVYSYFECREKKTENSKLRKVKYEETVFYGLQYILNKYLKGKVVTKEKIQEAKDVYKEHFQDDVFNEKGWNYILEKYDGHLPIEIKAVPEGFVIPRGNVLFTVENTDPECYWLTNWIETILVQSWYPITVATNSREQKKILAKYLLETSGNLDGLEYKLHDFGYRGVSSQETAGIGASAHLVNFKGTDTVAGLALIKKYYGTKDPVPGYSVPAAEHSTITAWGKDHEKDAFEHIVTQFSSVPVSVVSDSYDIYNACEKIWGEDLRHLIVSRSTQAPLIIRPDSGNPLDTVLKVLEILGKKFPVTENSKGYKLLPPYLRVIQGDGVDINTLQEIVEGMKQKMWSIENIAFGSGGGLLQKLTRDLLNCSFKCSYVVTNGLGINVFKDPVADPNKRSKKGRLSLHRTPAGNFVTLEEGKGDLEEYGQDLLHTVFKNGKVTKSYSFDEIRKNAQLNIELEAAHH
In short: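 Inhibition of E. coli-expressed His-tagged human NAMPT, measured as NMN formation by mass spectrometry after a 30 min room-temperature reaction containing 1 μM NAM, 100 μM PRPP and 2.5 mM ATP.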

A2780 cells = experiment: In-vitro cell proliferation assay (SRB), A2780 cells; type: cell-based; details: A2780 cells, 72 hours, read-out: A2780 IC50
In short: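 Proliferation is assessed by sulforhodamine B staining following a 72-hour incubation with compound dilutions containing 0.1% DMSO.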

[1] = Homo sapiens, A2780, 72 h, SRB assay

| Compound | pIC50 (NAMPT; NAMPT enzymatic assay) | pIC50 (A2780 cells; Homo sapiens, A2780, 72 h, SRB) | pIC50 (NAMPT; NAMPT enzymatic reaction) | pIC50 (A2780 cells; [1]) | pIC50 (A2780 cells; SRB) |
| --- | --- | --- | --- | --- | --- |
| O=C(NCc1ccc(S(=O)(=O)c2cccc(C(F)(F)F)n2)cc1)c1cnc2[nH]ncc2c1 [N-({4-[6-(trifluoromethyl)pyridine-2-sulfonyl]phenyl}methyl)-1H-pyrazolo[3,4-b]pyridine-5-carboxamide] | 7.62 | 7.95 |  |  |  |
| CC(C)COc1ccc(S(=O)(=O)c2ccc(CNC(=O)c3cnc4nccn4c3)cc2)cc1 | 8.26 | 8.28 |  |  |  |
| CC(C)COc1cc(F)cc(S(=O)(=O)c2ccc(CNC(=O)c3cnc4nccn4c3)cc2)c1 | 8.51 | 8.47 |  |  |  |
| COc1ccc(S(=O)(=O)c2ccc(CNC(=O)c3cc4ccncc4s3)cc2)cc1F [N-({4-[(3-fluoro-4-methoxybenzene)sulfonyl]phenyl}methyl)thieno[2,3-c]pyridine-2-carboxamide] |  |  | 8.30 | 8.60 |  |
| Cc1ccc(S(=O)(=O)c2ccc(CNC(=O)c3cc4cnccc4[nH]3)cc2)cc1F [N-({4-[(3-fluoro-4-methylbenzene)sulfonyl]phenyl}methyl)-1H-pyrrolo[3,2-c]pyridine-2-carboxamide] |  |  | 8.10 | 8.22 |  |
| O=C(NCc1ccc(S(=O)(=O)c2ccc(F)c(C(F)(F)F)c2)cc1)c1cnc2[nH]ncc2c1 [N-[(4-{[4-fluoro-3-(trifluoromethyl)benzene]sulfonyl}phenyl)methyl]-1H-pyrazolo[3,4-b]pyridine-5-carboxamide] | 7.40 | 7.86 |  |  |  |
| O=C(NCc1ccc(S(=O)(=O)c2cc(F)ccc2Cl)cc1)c1cc2ccncc2s1 |  | 8.24 | 8.38 |  |  |
| COc1ccc(S(=O)(=O)c2ccc(CNC(=O)c3cc4cnccc4[nH]3)cc2)c(C(F)(F)F)c1 | 7.09 | 7.89 |  |  |  |
| Cn1c(S(=O)(=O)c2ccc(CNC(=O)c3cc4ccncc4s3)cc2)cc2ccccc21 [N-{[4-(1-methyl-1H-indole-2-sulfonyl)phenyl]methyl}thieno[2,3-c]pyridine-2-carboxamide] | 8.28 | 8.47 |  |  |  |
| CC(=O)c1cccc(S(=O)(=O)c2ccc(CNC(=O)c3cnc4nccn4c3)cc2)c1 |  | 7.98 | 8.74 |  |  |
| Cc1cc(S(=O)(=O)c2ccc(CNC(=O)c3cnc4nccn4c3)cc2)ccc1F |  | 8.02 | 8.66 |  |  |
| Cn1c(S(=O)(=O)c2ccc(CNC(=O)c3cnc4[nH]ncc4c3)cc2)cc2ccccc21 [N-{[4-(1-methyl-1H-indole-2-sulfonyl)phenyl]methyl}-1H-pyrazolo[3,4-b]pyridine-5-carboxamide] | 7.85 | 7.88 |  |  |  |
| Cc1ccc(S(=O)(=O)c2ccc(CNC(=O)c3cnc4nccn4c3)cc2)c(F)c1 |  | 7.21 | 8.20 |  |  |
| COc1ccc(OC)c(S(=O)(=O)c2ccc(CNC(=O)c3cc4cnccc4[nH]3)cc2)c1 [N-({4-[(2,5-dimethoxybenzene)sulfonyl]phenyl}methyl)-1H-pyrrolo[3,2-c]pyridine-2-carboxamide] | 7.77 | 8.22 |  |  |  |
| CCCOc1ccc(S(=O)(=O)c2ccc(CNC(=O)c3cc4cnccc4[nH]3)cc2)cc1 |  | 8.17 | 8.28 |  |  |
| CN1CCN(c2ccc(S(=O)(=O)c3ccc(CNC(=O)c4cc5cnccc5[nH]4)cc3)cc2)CC1 | 8.52 | 9.10 |  |  |  |
| COc1cc(S(=O)(=O)c2ccc(CNC(=O)c3cc4ccncc4o3)cc2)ccc1F |  | 8.15 | 8.11 |  |  |
| CCN(CC)C(=O)c1cc(F)cc(S(=O)(=O)c2ccc(CNC(=O)c3cnc4nccn4c3)cc2)c1 [N-[(4-{[3-(diethylcarbamoyl)-5-fluorobenzene]sulfonyl}phenyl)methyl]imidazo[1,2-a]pyrimidine-6-carboxamide] | 8.33 | 7.77 |  |  |  |
| O=C(NCc1ccc(S(=O)(=O)c2ccc(F)cc2C(F)(F)F)cc1)c1ccc2nccn2c1 | 8.40 | 7.82 |  |  |  |
| O=C(NCc1ccc(S(=O)(=O)c2cc(F)cc(C(F)(F)F)c2)cc1)c1cc2ccncc2s1 [N-[(4-{[3-fluoro-5-(trifluoromethyl)benzene]sulfonyl}phenyl)methyl]thieno[2,3-c]pyridine-2-carboxamide] | 7.99 | 8.51 |  |  |  |
| O=C(NCc1ccc(S(=O)(=O)c2cccc(Cl)c2F)cc1)c1cnc2nccn2c1 |  | 7.75 | 8.62 |  |  |
| Cc1ccc(F)cc1S(=O)(=O)c1ccc(CNC(=O)c2ccc3nccn3c2)cc1 [N-({4-[(5-fluoro-2-methylbenzene)sulfonyl]phenyl}methyl)imidazo[1,2-a]pyridine-6-carboxamide] |  | 7.64 | 7.90 |  |  |
| COc1ccc(C(F)(F)F)cc1NS(=O)(=O)c1ccc(CNC(=O)c2cc3cnccc3[nH]2)cc1 [N-[(4-{[2-methoxy-5-(trifluoromethyl)phenyl]sulfamoyl}phenyl)methyl]-1H-pyrrolo[3,2-c]pyridine-2-carboxamide] |  |  | 9.30 | 8.80 |  |

| Compound | pIC50 (NAMPT; NAMPT enzymatic assay) | pIC50 (A2780 cells; Homo sapiens, A2780, 72 h, SRB) | pIC50 (NAMPT; NAMPT enzymatic reaction) | pIC50 (A2780 cells; [1]) | pIC50 (A2780 cells; SRB) |
| --- | --- | --- | --- | --- | --- |
| CC(C)COc1ccc(S(=O)(=O)c2ccc(CNC(=O)c3ccc4nccn4c3)cc2)cc1 | 8.66 | 8.57 |  |  |  |
| CCCCOc1ccc(S(=O)(=O)c2ccc(CNC(=O)c3ccc4nccn4c3)cc2)cc1Cl |  | 8.12 | 8.39 |  |  |
| Cc1c(F)cccc1S(=O)(=O)c1ccc(CNC(=O)c2cc3cnccc3[nH]2)cc1 |  | 7.88 | 7.24 |  |  |
| O=C(NCc1ccc(S(=O)(=O)c2ccccc2)cc1)N1CCc2ncccc2C1 [N-{[4-(benzenesulfonyl)phenyl]methyl}-5,6,7,8-tetrahydro-1,6-naphthyridine-6-carboxamide] |  |  | 6.26 | < 5.70 |  |
| CCOc1cc(F)ccc1S(=O)(=O)c1ccc(CNC(=O)c2cc3ccncc3s2)cc1 |  | 9.05 | 8.42 |  |  |
| O=C(NCc1ccc(S(=O)(=O)c2cncc(N3CCCC3)c2)cc1)c1ccc2nccn2c1 [N-({4-[5-(pyrrolidin-1-yl)pyridine-3-sulfonyl]phenyl}methyl)imidazo[1,2-a]pyridine-6-carboxamide] | 8.40 | 9.30 |  |  |  |
| O=C(NCc1ccc(S(=O)(=O)c2cnn(-c3ccc(F)cc3)c2)cc1)c1cc2cnccc2[nH]1 [N-({4-[1-(4-fluorophenyl)-1H-pyrazole-4-sulfonyl]phenyl}methyl)-1H-pyrrolo[3,2-c]pyridine-2-carboxamide] | 7.74 | 8.18 |  |  |  |
| Cc1ccc(Cl)c(S(=O)(=O)c2ccc(CNC(=O)c3cc4cnccc4[nH]3)cc2)c1F | 8.19 | 8.15 |  |  |  |
| CCc1ccccc1S(=O)(=O)c1ccc(CNC(=O)c2cc3cnccc3[nH]2)cc1 [N-({4-[(2-ethylbenzene)sulfonyl]phenyl}methyl)-1H-pyrrolo[3,2-c]pyridine-2-carboxamide] |  |  | 8.30 | 8.52 |  |
| O=C(NCc1ccc(S(=O)(=O)c2ccc(-c3ccccc3)cc2)cc1)c1cc2ccncc2o1 [N-({4-[(4-phenylbenzene)sulfonyl]phenyl}methyl)furo[2,3-c]pyridine-2-carboxamide] |  | 8.16 | 8.43 |  |  |
| CCOc1ccccc1S(=O)(=O)c1ccc(CNC(=O)c2cc3cnccc3[nH]2)cc1 [N-({4-[(2-ethoxybenzene)sulfonyl]phenyl}methyl)-1H-pyrrolo[3,2-c]pyridine-2-carboxamide] |  |  | 7.96 | 8.70 |  |
| COc1cccc(NS(=O)(=O)c2ccc(CNC(=O)c3cc4cnccc4[nH]3)cc2)c1C [N-({4-[(3-methoxy-2-methylphenyl)sulfamoyl]phenyl}methyl)-1H-pyrrolo[3,2-c]pyridine-2-carboxamide] |  |  | 7.52 | 8.22 |  |
| CN(C)C(=O)c1ccccc1S(=O)(=O)c1ccc(CNC(=O)c2cnc3nccn3c2)cc1 [N-[(4-{[2-(dimethylcarbamoyl)benzene]sulfonyl}phenyl)methyl]imidazo[1,2-a]pyrimidine-6-carboxamide] | 6.00 to 7.00 | 5.00 to 6.00 |  |  |  |
| O=C(NCc1ccc(S(=O)(=O)c2ccc(OCC(F)(F)F)c(F)c2)cc1)c1ccc2nccn2c1 | 7.82 | 8.10 |  |  |  |
| CCOc1ccc(-c2ccc(S(=O)(=O)c3ccc(CNC(=O)c4cc5cnccc5[nH]4)cc3)cc2)cc1 [N-[(4-{[4-(4-ethoxyphenyl)benzene]sulfonyl}phenyl)methyl]-1H-pyrrolo[3,2-c]pyridine-2-carboxamide] | 8.05 | 8.05 |  |  |  |
| CCCn1cc(S(=O)(=O)c2ccc(CNC(=O)c3cnc4[nH]ncc4c3)cc2)cn1 [N-{[4-(1-propyl-1H-pyrazole-4-sulfonyl)phenyl]methyl}-1H-pyrazolo[3,4-b]pyridine-5-carboxamide] | 8.10 | 8.15 |  |  |  |
| O=C(NCc1ccc(S(=O)(=O)c2ccc(-n3ccnc3)cc2)cc1)c1cnc2nccn2c1 | > 9.19 | 7.91 |  |  |  |
| Cc1ccc(F)c(S(=O)(=O)c2ccc(CNC(=O)c3cnc4[nH]ncc4c3)cc2)c1 |  |  | 7.62 |  | 7.15 |
| CC(C)COc1cc(F)cc(S(=O)(=O)c2ccc(CNC(=O)c3ccc4nccn4c3)cc2)c1 | 7.95 | 8.52 |  |  |  |
| O=C(NCc1ccc(S(=O)(=O)c2cncc(Cl)c2)cc1)c1cnc2[nH]ncc2c1 [N-{[4-(5-chloropyridine-3-sulfonyl)phenyl]methyl}-1H-pyrazolo[3,4-b]pyridine-5-carboxamide] | 7.62 | 8.21 |  |  |  |
| O=C(NCc1ccc(S(=O)(=O)c2cccc(N3CCCC3)c2)cc1)c1cnc2[nH]ncc2c1 | 7.77 | 7.89 |  |  |  |
| O=C(NCc1ccc(S(=O)(=O)c2cc(F)cc(OCC(F)(F)F)c2)cc1)c1cc2ccncc2o1 [N-[(4-{[3-fluoro-5-(2,2,2-trifluoroethoxy)benzene]sulfonyl}phenyl)methyl]furo[2,3-c]pyridine-2-carboxamide] | 8.13 | 8.21 |  |  |  |
| O=C(NCc1ccc(S(=O)(=O)c2ccccc2Cl)cc1)c1cc2ccncc2s1 |  | 8.18 | 8.62 |  |  |
